According to US9738634B2, “Heterocyclic amide compound and herbicide” (SYNGENTA PARTICIPATIONS AG, priority 2013, dated 2017):

Assays:
Assay type in all cases: in vivo
barnyard grass [1] = test: Test Example 1: weedkilling efficacy, preemergent weed treatment in the submerged state; A: barnyard grass; conditions: treatment dosage 252 g/ha
In short: (§1)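 Submerged pre-emergence treatment, water-surface application of compound emulsion at g/ha dosages; 4 cm flooded alluvial soil, weeds sown and 2.5-leaf rice transplanted same day. Rated after 3 weeks, greenhouse.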

bulrush [2] = test: Test Example 1: weedkilling efficacy, preemergent weed treatment in the submerged state; B: bulrush; conditions: treatment dosage 252 g/ha
In short: as §1

oval-leafed pondweed [3] = test: Test Example 1: weedkilling efficacy, preemergent weed treatment in the submerged state; C: oval-leafed pondweed; conditions: treatment dosage 252 g/ha
In short: as §1

transplanted rice = test: Test Example 1: preemergent weed treatment in the submerged state, effect on crop; a: transplanted rice; conditions: treatment dosage 252 g/ha
In short: as §1

barnyard grass [4] = test: Test Example 2: weedkilling efficacy, growth period weed treatment in the submerged state; A: barnyard grass; conditions: treatment dosage 252 g/ha
In short: (§2)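 Seedlings at 1-2 leaves in 4 cm-deep submerged alluvial soil received emulsion formulations on the water surface, dosed per hectare; effects were judged 3 weeks on.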

bulrush [5] = test: Test Example 2: weedkilling efficacy, growth period weed treatment in the submerged state; B: bulrush; conditions: treatment dosage 252 g/ha
In short: as §2

oval-leafed pondweed [6] = test: Test Example 2: weedkilling efficacy, growth period weed treatment in the submerged state; C: oval-leafed pondweed; conditions: treatment dosage 252 g/ha
In short: as §2

crabgrass [7] = test: Test Example 3: weedkilling efficacy through soil treatment; D: crabgrass; conditions: treatment dosage 315 g/ha
In short: (§3)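 Crop and weed responses were judged three weeks after a uniform surface spray of the water-diluted emulsion at the given g/ha rate. Seeds sat beneath about 1.5 cm of sterilized diluvial soil, and boxes stood in a greenhouse at 25 to 30° C.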

green foxtail [8] = test: Test Example 3: weedkilling efficacy through soil treatment; E: green foxtail; conditions: treatment dosage 315 g/ha
In short: as §3

wild oat = test: Test Example 3: weedkilling efficacy through soil treatment; G: wild oat; conditions: treatment dosage 315 g/ha
In short: as §3

black-grass [9] = test: Test Example 3: weedkilling efficacy through soil treatment; H: black-grass; conditions: treatment dosage 315 g/ha
In short: as §3

Italian ryegrass [10] = test: Test Example 3: weedkilling efficacy through soil treatment; I: Italian ryegrass; conditions: treatment dosage 315 g/ha
In short: as §3

Indian mallow [11] = test: Test Example 3: weedkilling efficacy through soil treatment; K: Indian mallow; conditions: treatment dosage 315 g/ha
In short: as §3

redroot pigweed [12] = test: Test Example 3: weedkilling efficacy through soil treatment; L: redroot pigweed; conditions: treatment dosage 315 g/ha
In short: as §3

fig-leafed goosefoot [13] = test: Test Example 3: weedkilling efficacy through soil treatment; M: fig-leafed goosefoot; conditions: treatment dosage 315 g/ha
In short: as §3

chickweed [14] = test: Test Example 3: weedkilling efficacy through soil treatment; N: chickweed; conditions: treatment dosage 315 g/ha
In short: as §3

birds-eye speedwell [15] = test: Test Example 3: weedkilling efficacy through soil treatment; p: birds-eye speedwell; conditions: treatment dosage 315 g/ha
In short: as §3

directly sown rice [16] = test: Test Example 3: soil treatment, effect on crop; b: directly sown rice; conditions: treatment dosage 315 g/ha
In short: as §3

corn [17] = test: Test Example 3: soil treatment, effect on crop; c: corn; conditions: treatment dosage 315 g/ha
In short: as §3

soybean [18] = test: Test Example 3: soil treatment, effect on crop; d: soybean; conditions: treatment dosage 315 g/ha
In short: as §3

wheat [19] = test: Test Example 3: soil treatment, effect on crop; e: wheat; conditions: treatment dosage 315 g/ha
In short: as §3

beet [20] = test: Test Example 3: soil treatment, effect on crop; f: beet; conditions: treatment dosage 315 g/ha
In short: as §3

crabgrass [21] = test: Test Example 4: weedkilling efficacy by foliar treatment; D: crabgrass; conditions: treatment dosage 315 g/ha
In short: (§4)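 Seeds are spot-sown into sterilized diluvial soil and covered with about 1.5 cm of soil. After 14 days' greenhouse growth at 25 to 30° C, plants are sprayed on stems and leaves with diluted emulsion at the stated g/ha rate, then scored at 3 weeks.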

green foxtail [22] = test: Test Example 4: weedkilling efficacy by foliar treatment; E: green foxtail; conditions: treatment dosage 315 g/ha
In short: as §4

black-grass [23] = test: Test Example 4: weedkilling efficacy by foliar treatment; H: black-grass; conditions: treatment dosage 315 g/ha
In short: as §4

Italian ryegrass [24] = test: Test Example 4: weedkilling efficacy by foliar treatment; I: Italian ryegrass; conditions: treatment dosage 315 g/ha
In short: as §4

Indian mallow [25] = test: Test Example 4: weedkilling efficacy by foliar treatment; K: Indian mallow; conditions: treatment dosage 315 g/ha
In short: as §4

redroot pigweed [26] = test: Test Example 4: weedkilling efficacy by foliar treatment; L: redroot pigweed; conditions: treatment dosage 315 g/ha
In short: as §4

fig-leafed goosefoot [27] = test: Test Example 4: weedkilling efficacy by foliar treatment; M: fig-leafed goosefoot; conditions: treatment dosage 315 g/ha
In short: as §4

chickweed [28] = test: Test Example 4: weedkilling efficacy by foliar treatment; N: chickweed; conditions: treatment dosage 315 g/ha
In short: as §4

catchweed = test: Test Example 4: weedkilling efficacy by foliar treatment; O: catchweed; conditions: treatment dosage 315 g/ha
In short: as §4

birds-eye speedwell [29] = test: Test Example 4: weedkilling efficacy by foliar treatment; p: birds-eye speedwell; conditions: treatment dosage 315 g/ha
In short: as §4

directly sown rice [30] = test: Test Example 4: foliar treatment, effect on crop; b: directly sown rice; conditions: treatment dosage 315 g/ha
In short: as §4

corn [31] = test: Test Example 4: foliar treatment, effect on crop; c: corn; conditions: treatment dosage 315 g/ha
In short: as §4

soybean [32] = test: Test Example 4: foliar treatment, effect on crop; d: soybean; conditions: treatment dosage 315 g/ha
In short: as §4

wheat [33] = test: Test Example 4: foliar treatment, effect on crop; e: wheat; conditions: treatment dosage 315 g/ha
In short: as §4

beet [34] = test: Test Example 4: foliar treatment, effect on crop; f: beet; conditions: treatment dosage 315 g/ha
In short: as §4

Compound	A (barnyard grass) weedkilling efficacy grade (barnyard grass [1])	B (bulrush) weedkilling efficacy grade (bulrush [2])	C (oval-leafed pondweed) weedkilling efficacy grade (oval-leafed pondweed [3])	a (transplanted rice) effect on crop grade (transplanted rice)	A (barnyard grass) weedkilling efficacy grade (barnyard grass [4])	B (bulrush) weedkilling efficacy grade (bulrush [5])	C (oval-leafed pondweed) weedkilling efficacy grade (oval-leafed pondweed [6])	D (crabgrass) weedkilling efficacy grade (crabgrass [7])	E (green foxtail) weedkilling efficacy grade (green foxtail [8])	G (wild oat) weedkilling efficacy grade (wild oat)	H (black-grass) weedkilling efficacy grade (black-grass [9])	I (Italian ryegrass) weedkilling efficacy grade (Italian ryegrass [10])	K (Indian mallow) weedkilling efficacy grade (Indian mallow [11])	L (redroot pigweed) weedkilling efficacy grade (redroot pigweed [12])	M (fig-leafed goosefoot) weedkilling efficacy grade (fig-leafed goosefoot [13])	N (chickweed) weedkilling efficacy grade (chickweed [14])	P (birds-eye speedwell) weedkilling efficacy grade (birds-eye speedwell [15])	b (directly sown rice) effect on crop grade (directly sown rice [16])	c (corn) effect on crop grade (corn [17])	d (soybean) effect on crop grade (soybean [18])	other results
COc1nsc(NC(=O)C(C)(C)N2COC(C)=C(c3ccsc3)C2=O)n1 [B-1-04]	5 (weed kill ratio 90% or more, (practically complete withering))	5 (weed kill ratio 90% or more, (practically complete withering))	5 (weed kill ratio 90% or more, (practically complete withering))	0 (weed kill ratio 5% or less (practically no effect))	5 (weed kill ratio 90% or more, (practically complete withering))	5 (weed kill ratio 90% or more, (practically complete withering))	5 (weed kill ratio 90% or more, (practically complete withering))	5 (weed kill ratio 90% or more, (practically complete withering))	5 (weed kill ratio 90% or more, (practically complete withering))	4 (weed kill ratio 70% or more, less than 90%)	5 (weed kill ratio 90% or more, (practically complete withering))	5 (weed kill ratio 90% or more, (practically complete withering))	3 (weed kill ratio 40% or more, less than 70%)	4 (weed kill ratio 70% or more, less than 90%)	5 (weed kill ratio 90% or more, (practically complete withering))	4 (weed kill ratio 70% or more, less than 90%)	5 (weed kill ratio 90% or more, (practically complete withering))	4 (weed kill ratio 70% or more, less than 90%)	0 (weed kill ratio 5% or less (practically no effect))	0 (weed kill ratio 5% or less (practically no effect))	e (wheat) effect on crop grade (wheat [19]): 0 (weed kill ratio 5% or less (practically no effect)); f (beet) effect on crop grade (beet [20]): 4 (weed kill ratio 70% or more, less than 90%); D (crabgrass) weedkilling efficacy grade (crabgrass [21]): 4 (weed kill ratio 70% or more, less than 90%); E (green foxtail) weedkilling efficacy grade (green foxtail [22]): 4 (weed kill ratio 70% or more, less than 90%); H (black-grass) weedkilling efficacy grade (black-grass [23]): 5 (weed kill ratio 90% or more, (practically complete withering)); I (Italian ryegrass) weedkilling efficacy grade (Italian ryegrass [24]): 5 (weed kill ratio 90% or more, (practically complete withering)); K (Indian mallow) weedkilling efficacy grade (Indian mallow [25]): 4 (weed kill ratio 70% or more, less than 90%); L (redroot pigweed) weedkilling efficacy grade (redroot pigweed [26]): 4 (weed kill ratio 70% or more, less than 90%); M (fig-leafed goosefoot) weedkilling efficacy grade (fig-leafed goosefoot [27]): 5 (weed kill ratio 90% or more, (practically complete withering)); N (chickweed) weedkilling efficacy grade (chickweed [28]): 3 (weed kill ratio 40% or more, less than 70%); O (catchweed) weedkilling efficacy grade (catchweed): 4 (weed kill ratio 70% or more, less than 90%); P (birds-eye speedwell) weedkilling efficacy grade (birds-eye speedwell [29]): 3 (weed kill ratio 40% or more, less than 70%); b (directly sown rice) effect on crop grade (directly sown rice [30]): 4 (weed kill ratio 70% or more, less than 90%); c (corn) effect on crop grade (corn [31]): 3 (weed kill ratio 40% or more, less than 70%); d (soybean) effect on crop grade (soybean [32]): 0 (weed kill ratio 5% or less (practically no effect)); e (wheat) effect on crop grade (wheat [33]): 0 (weed kill ratio 5% or less (practically no effect)); f (beet) effect on crop grade (beet [34]): 5 (weed kill ratio 90% or more, (practically complete withering))
CSc1nsc(NC(=O)C(C)(C)N2COC(C)=C(c3ccsc3)C2=O)n1 [B-1-05]	5 (weed kill ratio 90% or more, (practically complete withering))	5 (weed kill ratio 90% or more, (practically complete withering))	5 (weed kill ratio 90% or more, (practically complete withering))	4 (weed kill ratio 70% or more, less than 90%)	5 (weed kill ratio 90% or more, (practically complete withering))	5 (weed kill ratio 90% or more, (practically complete withering))	5 (weed kill ratio 90% or more, (practically complete withering))	5 (weed kill ratio 90% or more, (practically complete withering))	5 (weed kill ratio 90% or more, (practically complete withering))	5 (weed kill ratio 90% or more, (practically complete withering))	5 (weed kill ratio 90% or more, (practically complete withering))	0 (weed kill ratio 5% or less (practically no effect))	4 (weed kill ratio 70% or more, less than 90%)	4 (weed kill ratio 70% or more, less than 90%)	5 (weed kill ratio 90% or more, (practically complete withering))	4 (weed kill ratio 70% or more, less than 90%)	5 (weed kill ratio 90% or more, (practically complete withering))	5 (weed kill ratio 90% or more, (practically complete withering))	1 (weed kill ratio 5% or more, less than 20%)	0 (weed kill ratio 5% or less (practically no effect))	e (wheat) effect on crop grade (wheat [19]): 0 (weed kill ratio 5% or less (practically no effect)); f (beet) effect on crop grade (beet [20]): 5 (weed kill ratio 90% or more, (practically complete withering)); D (crabgrass) weedkilling efficacy grade (crabgrass [21]): 5 (weed kill ratio 90% or more, (practically complete withering)); E (green foxtail) weedkilling efficacy grade (green foxtail [22]): 5 (weed kill ratio 90% or more, (practically complete withering)); H (black-grass) weedkilling efficacy grade (black-grass [23]): 5 (weed kill ratio 90% or more, (practically complete withering)); I (Italian ryegrass) weedkilling efficacy grade (Italian ryegrass [24]): 4 (weed kill ratio 70% or more, less than 90%); K (Indian mallow) weedkilling efficacy grade (Indian mallow [25]): 5 (weed kill ratio 90% or more, (practically complete withering)); L (redroot pigweed) weedkilling efficacy grade (redroot pigweed [26]): 5 (weed kill ratio 90% or more, (practically complete withering)); M (fig-leafed goosefoot) weedkilling efficacy grade (fig-leafed goosefoot [27]): 5 (weed kill ratio 90% or more, (practically complete withering)); N (chickweed) weedkilling efficacy grade (chickweed [28]): 4 (weed kill ratio 70% or more, less than 90%); O (catchweed) weedkilling efficacy grade (catchweed): 4 (weed kill ratio 70% or more, less than 90%); P (birds-eye speedwell) weedkilling efficacy grade (birds-eye speedwell [29]): 5 (weed kill ratio 90% or more, (practically complete withering)); b (directly sown rice) effect on crop grade (directly sown rice [30]): 4 (weed kill ratio 70% or more, less than 90%); c (corn) effect on crop grade (corn [31]): 2 (weed kill ratio 20% or more, less than 40%); d (soybean) effect on crop grade (soybean [32]): 0 (weed kill ratio 5% or less (practically no effect)); e (wheat) effect on crop grade (wheat [33]): 0 (weed kill ratio 5% or less (practically no effect)); f (beet) effect on crop grade (beet [34]): 4 (weed kill ratio 70% or more, less than 90%)
